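The compound was tested at five concentrations on cells cultured in 96-well plates, with a 48-hour exposure period. GI50: concentration for 50% inhibition of growth.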 The source made the active and inactive calls. No stated cut-off is given here; in the data, active = GI50 up to about 1.1 µM and inactive = higher.
Columns and labels:
Assay in all cases: NCI anticancer screen, dose series, 48 h
786-0 = test system: 786-0
CAKI-1 = test system: CAKI-1
HCT-116 = test system: HCT-116
HOP-62 = test system: HOP-62
IGROV-1 = test system: IGROV-1
K562 = test system: K562
NCI-H226 = test system: NCI-H226
NCI-H23 = test system: NCI-H23
NCI-H522 = test system: NCI-H522
OVCAR-3 = test system: OVCAR-3
SF-268 = test system: SF-268
SF-295 = test system: SF-295
SK-MEL-28 = test system: SK-MEL-28
SK-MEL-2 = test system: SK-MEL-2
SNB-19 = test system: SNB-19
SNB-75 = test system: SNB-75
UACC-62 = test system: UACC-62
RPMI-8226 = test system: RPMI-8226

Measured: GI50

COc1cc(OC)c(Oc2cccc(OC)c2OC)c(OC)c1
inactive: 786-0 > 100 µM | CAKI-1 > 100 µM | HCT-116 > 100 µM | HOP-62 > 100 µM | IGROV-1 > 100 µM | K562 > 100 µM | NCI-H226 > 100 µM | NCI-H23 > 100 µM | NCI-H522 > 100 µM | OVCAR-3 > 100 µM | SF-268 > 100 µM | SF-295 > 100 µM | SK-MEL-28 > 100 µM | SK-MEL-2 > 100 µM | SNB-19 32.1 µM | SNB-75 > 100 µM | UACC-62 > 100 µM

CC(C)=CC(=O)CC(=O)C(=O)Nc1ccc(Cl)c(Cl)c1
inactive: 786-0 > 100 µM | HCT-116 > 100 µM | HOP-62 > 100 µM | IGROV-1 > 100 µM | K562 > 100 µM | NCI-H226 > 100 µM | NCI-H23 > 100 µM | NCI-H522 > 100 µM | OVCAR-3 > 100 µM | RPMI-8226 > 100 µM | SF-268 > 100 µM | SF-295 > 100 µM | SK-MEL-28 > 100 µM | SK-MEL-2 > 100 µM | SNB-19 > 100 µM | SNB-75 > 100 µM | UACC-62 > 100 µM

N=C(N)NS(=O)(=O)c1ccc(NC(=O)c2cccc3c(Nc4ccc(S(=O)(=O)N=C(N)N)cc4)c4ccccc4nc23)cc1
inactive: 786-0 50.9 µM | CAKI-1 > 10 µM | HCT-116 38 µM | HOP-62 > 100 µM | IGROV-1 70.5 µM | K562 5.98 µM | NCI-H23 44.3 µM | NCI-H522 7.94 µM | OVCAR-3 50.1 µM | RPMI-8226 > 100 µM | SF-268 62.5 µM | SF-295 88.1 µM | SK-MEL-28 82.8 µM | SK-MEL-2 > 100 µM | SNB-19 > 100 µM | SNB-75 6.05 µM | UACC-62 45.8 µM

Clc1cccc(Cl)c1C1SCc2nc3ccccc3n21 (stereo not given)
inactive: 786-0 > 100 µM | CAKI-1 > 100 µM | HCT-116 9.23 µM | HOP-62 > 100 µM | IGROV-1 37.2 µM | K562 10.7 µM | NCI-H226 > 100 µM | NCI-H23 > 100 µM | NCI-H522 > 100 µM | OVCAR-3 > 100 µM | RPMI-8226 9.2 µM | SF-268 > 100 µM | SF-295 > 100 µM | SNB-19 > 100 µM | SNB-75 88.3 µM | UACC-62 50.1 µM

CC1(C)O[C@@H](CCl)C[C@H](C#N)O1
inactive: 786-0 > 100 µM | CAKI-1 > 100 µM | HCT-116 > 100 µM | HOP-62 > 100 µM | IGROV-1 > 100 µM | K562 > 100 µM | NCI-H226 97.1 µM | NCI-H23 > 100 µM | NCI-H522 > 100 µM | OVCAR-3 > 100 µM | RPMI-8226 > 100 µM | SF-268 > 100 µM | SF-295 > 100 µM | SK-MEL-28 > 100 µM | SK-MEL-2 > 100 µM | SNB-19 > 100 µM | SNB-75 > 100 µM | UACC-62 > 100 µM

Cc1cccc(C(C)C)c1NC(=O)C(=O)C(C(=O)c1ccccc1F)C1OC(=O)c2ccccc21 (stereo not given)
inactive: 786-0 15.7 µM | CAKI-1 31.5 µM | HCT-116 13.6 µM | HOP-62 15.8 µM | IGROV-1 24.8 µM | K562 20.4 µM | NCI-H226 3.25 µM | NCI-H23 15 µM | NCI-H522 13.8 µM | OVCAR-3 14.4 µM | RPMI-8226 4.78 µM | SF-268 9.64 µM | SK-MEL-28 14.4 µM | SK-MEL-2 15.7 µM | SNB-19 10.8 µM | SNB-75 9.75 µM | UACC-62 10.4 µM

CC1=NOC(=O)/C1=C/c1cccc2ccccc12
inactive: 786-0 > 100 µM | CAKI-1 > 100 µM | HCT-116 > 100 µM | HOP-62 > 100 µM | IGROV-1 > 100 µM | K562 > 100 µM | NCI-H226 > 100 µM | NCI-H23 > 100 µM | NCI-H522 > 100 µM | OVCAR-3 > 100 µM | RPMI-8226 > 100 µM | SF-268 > 100 µM | SF-295 > 100 µM | SK-MEL-28 > 100 µM | SK-MEL-2 > 100 µM | SNB-19 > 100 µM | SNB-75 > 100 µM | UACC-62 > 100 µM

CC1=C(C(=O)CC(=O)C(=O)Nc2ccc(Cl)cc2C)Sc2ccccc2N1
inactive: 786-0 > 100 µM | CAKI-1 > 100 µM | HCT-116 > 100 µM | HOP-62 > 100 µM | IGROV-1 > 100 µM | K562 > 100 µM | NCI-H23 > 100 µM | NCI-H522 > 84.7 µM | OVCAR-3 > 100 µM | RPMI-8226 > 100 µM | SF-268 > 100 µM | SF-295 > 100 µM | SK-MEL-28 > 100 µM | SK-MEL-2 > 100 µM | SNB-19 > 100 µM | SNB-75 > 100 µM | UACC-62 > 100 µM

Cn1ccnc1C(c1nccn1C)C(C)(C)[N+](=O)[O-]
inactive: 786-0 > 100 µM | CAKI-1 > 100 µM | HCT-116 > 100 µM | HOP-62 > 100 µM | K562 > 100 µM | NCI-H522 > 100 µM | OVCAR-3 > 100 µM | RPMI-8226 > 100 µM | SF-268 > 100 µM | SF-295 > 100 µM | SK-MEL-28 > 100 µM | SK-MEL-2 > 100 µM | SNB-75 > 100 µM | UACC-62 12.4 µM

COc1ccc(Nc2nc3ccc(C(F)(F)F)cc3nc2-c2ccccc2)cc1OC
inactive: 786-0 23.3 µM | CAKI-1 60.4 µM | HCT-116 27.4 µM | HOP-62 > 100 µM | IGROV-1 60.7 µM | K562 31.4 µM | NCI-H226 28.6 µM | NCI-H23 32.4 µM | NCI-H522 24.7 µM | OVCAR-3 54.7 µM | SF-268 92.7 µM | SF-295 17.4 µM | SK-MEL-28 > 100 µM | SK-MEL-2 57.5 µM | SNB-75 > 100 µM | UACC-62 66.8 µM

CC(C)(C)[Si](Nc1ccccc1)(c1ccccc1)c1ccccc1
inactive: 786-0 15 µM | HCT-116 7.91 µM | HOP-62 16.8 µM | IGROV-1 14.7 µM | K562 8.26 µM | NCI-H226 15.3 µM | NCI-H23 16.9 µM | NCI-H522 > 10 µM | OVCAR-3 14.3 µM | RPMI-8226 16.8 µM | SF-268 13.5 µM | SF-295 13.3 µM | SK-MEL-28 16.6 µM | SK-MEL-2 18.4 µM | SNB-19 14.1 µM | SNB-75 12.1 µM | UACC-62 10.6 µM

OCC1OC2c3ccccc3COC2C1OCc1ccccc1 (stereo not given)
inactive: 786-0 > 100 µM | CAKI-1 96.8 µM | HCT-116 > 100 µM | IGROV-1 > 100 µM | K562 96.4 µM | NCI-H226 > 100 µM | NCI-H23 91.6 µM | NCI-H522 70.1 µM | OVCAR-3 > 100 µM | RPMI-8226 > 100 µM | SF-295 88.9 µM | SK-MEL-28 > 100 µM | SK-MEL-2 > 100 µM | SNB-19 > 100 µM | SNB-75 > 100 µM | UACC-62 69.5 µM
